Source: patent US20080194585A1, “Fungicidal Pyrazine Derivatives” (priority 2005, published 2008)
Marks after values point to notes of the source that are not given here.

Columns and labels:
Plasmopara viticola = assay: Test D: grape downy mildew, spray after inoculation of grape seedlings; assay type: in vivo
Source text: Upon removal, disease ratings were made. […] A dash (-) indicates no test results.

Phytophthora infestans = assay: whole plant or invertebrate; assay type: in vivo
Septoria tritici = assay: Test J: wheat leaf blotch, preventive spray on wheat seedlings; assay type: in vivo
Source text: A dash (-) indicates no test results.

fusarium graminearium = assay: Test I: wheat head scab, preventive spray on wheat seedlings
Method: (the causal agent of wheat head scab) and incubated in a saturated atmosphere at 20° C. for 72 h, and then moved to a growth chamber at 22° C. for 5 days, after which disease ratings were made.

[1] = system: Puccinia recondita f. sp. tritici; assay: Test K: wheat leaf rust, preventive spray on wheat seedlings
Botrytis cinerea = assay: Test E: tomato botrytis, preventive spray on tomato seedlings
Septoria nodorum = assay: Test H: wheat glum blotch, preventive spray on wheat seedlings
Method: (the causal agent of wheat glum blotch) and incubated in a saturated atmosphere at 20° C. for 48 h, and then moved to a growth chamber at 22° C. for 5 days, after which disease ratings were made.

[2] = system: Erysiphe graminis f. sp. tritici; assay: Test L: wheat powdery mildew, preventive spray on wheat seedlings
Pythium aphanidermatum = assay: Test A: bluegrass pythium blight, preventive spray on bluegrass seedlings
Rhizoctonia oryzae = assay: Test G: turf brown patch, preventive spray on creeping bent grass seedlings
Method: (the causal agent of turf brown patch) and incubated in a saturated atmosphere at 27° C. for 24 h, and then moved to a growth chamber at 27° C. for 5 days, after which disease ratings were made.

[3] = system: Colletotrichum orbiculare; assay: Test B: cucumber Colletotrichum anthracnose, preventive spray on cucumber seedlings
[4] = 40 ppm (marked *), 100 = 100% disease control, 0 = no control
[5] = 200 ppm, 100 = 100% disease control, 0 = no control

Row | Compound | Test J disease control rating (Septoria tritici; [4]) | Test K disease control rating [1, 4] | Test E disease control rating (Botrytis cinerea; [4]) | Test H disease control rating (Septoria nodorum; [4]) | Test L disease control rating [2, 4] | Test G disease control rating (Rhizoctonia oryzae; [4]) | Test B disease control rating [3, 4] | Test D disease control rating (Plasmopara viticola; 200 ppm) [%] | Test F disease control rating (Phytophthora infestans; 200 ppm) [%] | Test J disease control rating (Septoria tritici; 200 ppm) [%] | Test I disease control rating (fusarium graminearium; 200 ppm) [%] | Test K disease control rating ([1]; 200 ppm) [%] | Test E disease control rating (Botrytis cinerea; 200 ppm) [%] | Test H disease control rating (Septoria nodorum; 200 ppm) [%] | Test L disease control rating ([2]; 200 ppm) [%] | Test A disease control rating (Pythium aphanidermatum; 200 ppm) [%] | Test G disease control rating (Rhizoctonia oryzae; 200 ppm) [%] | Test B disease control rating ([3]; 200 ppm) [%] | also measured
1 | Cc1ccn(-c2nc(Cl)c(-c3c(F)cccc3F)n(-c3cccc(F)c3F)c2=O)n1 [compound 381] | 100* % | 100* % | 100* % | 99* % | 76* % | 16* % | 78* % |  |  |  |  |  |  |  |  |  |  |  | Test D disease control rating (Plasmopara viticola; [4]): 0* %; Test F disease control rating (Phytophthora infestans; [4]): 0* %; Test I disease control rating (fusarium graminearium; [4]): 0* %; Test A disease control rating (Pythium aphanidermatum; [4]): 0* %
2 | O=c1c(-n2cccn2)nc(Cl)c(-c2c(F)cc(F)cc2F)n1-c1cccc(Cl)c1 [compound 373] | 96* % | 100* % | 100* % | 99* % | 100* % | 93* % | 99* % |  |  |  |  |  |  |  |  |  |  |  | Test D disease control rating (Plasmopara viticola; [4]): 0* %; Test F disease control rating (Phytophthora infestans; [4]): 0* %; Test I disease control rating (fusarium graminearium; [4]): 78* %; Test A disease control rating (Pythium aphanidermatum; [4]): 0* %
3 | N#Cc1nc(Cl)c(-c2c(F)cccc2F)n(-c2ccccc2)c1=O [compound 163] |  |  |  |  |  |  |  |  |  |  |  |  |  |  |  |  |  |  | Test D disease control rating (Plasmopara viticola; 40 ppm (*)): 0* %; Test F disease control rating (Phytophthora infestans; 40 ppm (*)): 0* %; Test J disease control rating (Septoria tritici; 40 ppm (*)): 3* %; Test I disease control rating (fusarium graminearium; 40 ppm (*)): 0* %; Test K disease control rating ([1]; 40 ppm (*)): 0* %; Test E disease control rating (Botrytis cinerea; 40 ppm (*)): 0* %; Test H disease control rating (Septoria nodorum; 40 ppm (*)): 0* %; Test L disease control rating ([2]; 40 ppm (*)): 0* %; Test A disease control rating (Pythium aphanidermatum; 40 ppm (*)): 0* %; Test G disease control rating (Rhizoctonia oryzae; 40 ppm (*)): 0* %; Test B disease control rating ([3]; 40 ppm (*)): 0* %
4 | CC(C)Cn1c(-c2c(F)cccc2F)c(Cl)nc(-c2cnc3ccccn23)c1=O [compound 190] |  |  |  |  |  |  |  | 0 | 0 | 0 | 0 | 0 | 0 | 0 | 0 | 0 | 0 | 0 | 
5 | COCC(C)n1c(-c2c(F)cccc2F)c(Cl)nc(-n2cccc2C#N)c1=O (stereo not shown) [compound 312] |  |  |  |  |  |  |  |  |  |  |  |  |  |  |  |  |  |  | Test D disease control rating (Plasmopara viticola; [5]): 40%; Test F disease control rating (Phytophthora infestans; [5]): 9%; Test J disease control rating (Septoria tritici; [5]): 13%; Test I disease control rating (fusarium graminearium; [5]): 0%; Test K disease control rating [1, 5]: 0%; Test E disease control rating (Botrytis cinerea; [5]): 0%; Test H disease control rating (Septoria nodorum; [5]): 0%; Test L disease control rating [2, 5]: 0%; Test A disease control rating (Pythium aphanidermatum; [5]): 0%; Test G disease control rating (Rhizoctonia oryzae; [5]): 0%; Test B disease control rating [3, 5]: 0%
6 | CC(C)C(C)n1c(-c2c(F)cccc2F)c(Cl)nc(-n2cccn2)c1=O (stereo not shown) [compound 29] |  |  |  |  |  |  |  | 0 | 0 | 100 | 0 | 100 | 80 | 99 | 98 | 0 | 95 | 99 | 
7 | CC(c1ccccc1)n1c(-c2c(F)cccc2F)c(Cl)nc(-n2cccn2)c1=O (stereo not shown) [compound 107] |  |  |  |  |  |  |  | 0 | 0 | 93 | 69 | 98 | 0 | 0 | 0 | 0 | 0 | 0 | 
8 | CCC(C)Cn1c(-c2c(F)cccc2F)c(Cl)nc(C(=O)NC)c1=O (stereo not shown) [compound 297] |  |  |  |  |  |  |  |  |  |  |  |  |  |  |  |  |  |  | Test D disease control rating (Plasmopara viticola; [5]): 88%; Test F disease control rating (Phytophthora infestans; [5]): 92%; Test J disease control rating (Septoria tritici; [5]): 99%; Test I disease control rating (fusarium graminearium; [5]): 75%; Test K disease control rating [1, 5]: 98%; Test E disease control rating (Botrytis cinerea; [5]): 99%; Test H disease control rating (Septoria nodorum; [5]): 100%; Test L disease control rating [2, 5]: 97%; Test A disease control rating (Pythium aphanidermatum; [5]): 0%; Test G disease control rating (Rhizoctonia oryzae; [5]): 78%; Test B disease control rating [3, 5]: 73%
9 | CC(C)Cn1c(-c2c(F)cccc2F)c(Cl)nc(-c2cnccn2)c1=O [compound 350] |  |  |  |  |  |  |  |  |  |  |  |  |  |  |  |  |  |  | Test D disease control rating (Plasmopara viticola; [5]): 0%; Test F disease control rating (Phytophthora infestans; [5]): 0%; Test J disease control rating (Septoria tritici; [5]): 85%; Test I disease control rating (fusarium graminearium; [5]): 80%; Test K disease control rating [1, 5]: 99%; Test E disease control rating (Botrytis cinerea; [5]): 98%; Test H disease control rating (Septoria nodorum; [5]): 98%; Test L disease control rating [2, 5]: 86%; Test A disease control rating (Pythium aphanidermatum; [5]): 80%; Test G disease control rating (Rhizoctonia oryzae; [5]): 99%; Test B disease control rating [3, 5]: 0%
10 | CC(C)Cn1c(-c2c(F)cccc2F)c(Cl)nc(-c2ccnn2C)c1=O [compound 103] |  |  |  |  |  |  |  | 0 | 0 | 3 | 0 | 0 | 0 | 0 | 0 | 0 | 0 | 0 | 
11 | O=c1c(-n2cccn2)nc(Cl)c(-c2c(F)cccc2F)n1-c1ccccc1Br [compound 360] | 100* % | 100* % | 99* % | 100* % | 99* % | 65* % | 0* % |  |  |  |  |  |  |  |  |  |  |  | Test D disease control rating (Plasmopara viticola; [5]): 0%; Test F disease control rating (Phytophthora infestans; [5]): 0%; Test I disease control rating (fusarium graminearium; [5]): 86%; Test A disease control rating (Pythium aphanidermatum; [5]): 0%
12 | O=c1c(-n2cncn2)nc(Cl)c(-c2c(F)cccc2F)n1CC1CC1 [compound 17] |  |  |  |  |  |  |  | 54 | 0 | 87 | 94 | 100 | 100 | 100 | 99 | 0 | 99 | 0 | 
13 | CC(C)Cn1c(-c2c(Cl)cc(Cl)cc2Cl)c(Cl)nc(-n2cccn2)c1=O [compound 318] | 100* % | 97* % | 99* % | 97* % | 67* % | 78* % | 82* % |  |  |  |  |  |  |  |  |  |  |  | Test D disease control rating (Plasmopara viticola; [4]): 0* %; Test F disease control rating (Phytophthora infestans; [4]): 0* %; Test I disease control rating (fusarium graminearium; [4]): 0* %; Test A disease control rating (Pythium aphanidermatum; [4]): 0* %
14 | Cc1ccn(-c2nc(Cl)c(-c3ccc(F)cc3Cl)n(-c3ccccc3)c2=O)n1 [compound 323] | 100* % | 96* % | 99* % | 97* % | 0* % | 16* % | 78* % |  |  |  |  |  |  |  |  |  |  |  | Test D disease control rating (Plasmopara viticola; [4]): 0* %; Test F disease control rating (Phytophthora infestans; [4]): 0* %; Test I disease control rating (fusarium graminearium; [4]): 0* %; Test A disease control rating (Pythium aphanidermatum; [4]): 0* %
